For 14 molecules, IC50 results are on record in patent publication US12275729B2 (Merck Sharp & Dohme LLC, priority 2017, dated 2025).

The IC50 is the concentration needed to halve the response being measured.

Molecules are shown by their SMILES.

For one assay, the target named is IDO1 (Homo sapiens, UniProt P14902). Kind of assay: IDO1 Cellular Assay in HeLa Cells Stimulated with IFNγ. The assay is classed as cell-based. The following applies: about 48 hours, read-out: Hela IC50.
Chain of IDO1 (P14902 whole entry): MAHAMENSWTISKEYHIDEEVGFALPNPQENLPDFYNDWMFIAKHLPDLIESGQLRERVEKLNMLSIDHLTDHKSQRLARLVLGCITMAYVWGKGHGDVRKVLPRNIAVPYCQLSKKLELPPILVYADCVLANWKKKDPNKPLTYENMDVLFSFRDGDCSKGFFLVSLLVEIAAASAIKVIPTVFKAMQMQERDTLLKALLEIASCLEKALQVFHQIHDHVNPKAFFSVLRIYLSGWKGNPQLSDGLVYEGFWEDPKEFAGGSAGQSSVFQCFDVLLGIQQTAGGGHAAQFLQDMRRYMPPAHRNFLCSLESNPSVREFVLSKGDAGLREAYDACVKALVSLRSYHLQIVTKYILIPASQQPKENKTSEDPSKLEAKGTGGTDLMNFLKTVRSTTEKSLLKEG
In the case of `CC(C)[C@H](O)C(=O)N1CCCc2cc([C@H](C)C(=O)Nc3ccc(F)cc3)ccc21` (single isomer, unassigned) [Example 73], the IC50 was determined as 381 nM.
Same read-out and setting: then `COC(C)C(=O)N1CCCc2cc([C@H](C)C(=O)Nc3ccc(F)cc3)ccc21` (single isomer, unassigned) [Example 76], with 25.9 nM; and `COC(=O)N1CCCc2nc(C(C)C(=O)Nc3ccc(Cl)cc3)ccc21` (centres unmarked) [Example 223, methyl 6-{1-[(4-chlorophenyl)amino]-1-oxopropan-2-yl}-3,4-dihydro-1,5-naphthyridine-1(2H)-carboxylate], with 10.8 nM.
For `CC(C)NC(=O)N1CCCc2nc([C@@H](C)C(=O)Nc3ccc(F)cc3)ccc21` [Example 217, 6-{(2R)-1-[(4-fluorophenyl)amino]-1-oxopropan-2-yl}-N-(propan-2-yl)-3,4-dihydro-1,5-naphthyridine-1(2H)-carboxamide], the IC50 amounted to 24.6 nM.
Same read-out and setting: then `O=C(C1CCCCO1)N1CCCc2nc(C3(C(=O)Nc4ccc(F)cc4)CCC3)ccc21` (single isomer, unassigned) [Example 178, N-(4-fluorophenyl)-1-[5-(oxane-2-carbonyl)-5,6,7,8-tetrahydro-1,5-naphthyridin-2-yl]cyclobutane-1-carboxamide], with 1.6 nM; and `Cc1noc(C(=O)NCc2ccc3c(c2)CCCN3C(=O)c2cccc(Cl)c2)n1` [Example 21, N-{[1-(3-chlorobenzene-1-carbonyl)-1,2,3,4-tetrahydroquinolin-6-yl]methyl}-3-methyl-1,2,4-oxadiazole-5-carboxamide], with 40.5 nM; and `COC(=O)N1CCCc2nc(C(C)C(=O)Nc3ccc(Cl)cc3)ccc21` (centres unmarked) [Example 221, methyl 6-{1-[(4-chlorophenyl)amino]-1-oxopropan-2-yl}-3,4-dihydro-1,5-naphthyridine-1(2H)-carboxylate], with 19.8 nM.
For the molecule `CC(C(=O)Nc1ccc(F)cc1)c1ccc2c(c1)CCCN2Cc1cccc(Cl)c1` (single isomer, unassigned) [Example 226, 2-{1-[(3-chlorophenyl)methyl]-1,2,3,4-tetrahydroquinolin-6-yl}-N-(4-fluorophenyl)propanamide], the IC50 amounted to 43.6 nM.
With `CC(C(=O)Nc1ccc(F)cc1)c1ccc2c(n1)CCCN2C(=O)c1cccc(S(C)(=O)=O)c1` (centres unmarked) [Example 285, N-(4-fluorophenyl)-2-(5-(3-(methylsulfonyl)benzoyl)-5,6,7,8-tetrahydro-1,5-naphthyridin-2-yl)propanamide], the IC50 was 4000 nM.
For the molecule `O=C(Nc1ccc(F)cc1)C1(c2ccc3c(n2)CCCN3c2ccnc(C(F)(F)F)n2)CCC1` [Example 407, N-(4-fluorophenyl)-1-(5-(2-(trifluoromethyl)pyrimidin-4-yl)-5,6,7,8-tetrahydro-1,5-naphthyridin-2-yl)cyclobutane-1-carboxamide], the IC50 was 1.49 nM.
Still for that read-out and setting: to `C[C@@H](NC(=O)c1ccc(F)cn1)c1ccc2c(c1)CCCN2C(=O)C1(F)CC1` (single isomer, unassigned) [Example 33] belongs 729 nM.

The assay is the same for the next values; noted with them: read-out: Hela IC50.
Take `CC(COC(=O)N1CCCc2nc(C(C)NC(=O)c3ccc(F)cc3)ccc21)Oc1ccccc1` (centres unmarked) [Example 327, 2-phenoxypropyl 6-(1-(4-fluorobenzamido)ethyl)-3,4-dihydro-1,5-naphthyridine-1(2H)-carboxylate]: the IC50 came out at 14.4 nM.
The same measure, in the same setting: to `CC(NC(=O)c1ccc(F)cc1)c1ccc2c(n1)CCCN2c1ccn2ncnc2n1` (centres unmarked) [Example 370, N-(1-(5-([1,2,4]triazolo[1,5-a]pyrimidin-5-yl)-5,6,7,8-tetrahydro-1,5-naphthyridin-2-yl)ethyl)-4-fluorobenzamide] belongs 1800 nM; to `CC(NC(=O)c1ccc(F)cc1)c1ccc2c(n1)CCCN2C(=O)OC1CCCC1` (centres unmarked) [Example 314, cyclopentyl 6-(1-(4-fluorobenzamido)ethyl)-3,4-dihydro-1,5-naphthyridine-1(2H)-carboxylate], 0.65 nM.
